In patent publication US6329399A, “Antifungal amine derivatives and processing for producing the same” (Pola Chemical Industries, Inc., priority 1997, dated 2001) one finds MIC data, which are given here for five molecules.

Test in all cases: Measurement of antimycotic activity (minimum inhibitory concentration, MIC) against dermatophyte
Holding throughout (assay type): cell-based

The subject of assay [1] is M. canis TIMM0760. Particulars: Microsporum canis, 168 h, Sabouraud's agar pH=5.9, 27° C., 1 week. The protocol: (§1) The antimycotic activity of the compounds of the invention against dermatophyte was examined.
(§2) More particularly, the test dermatophyte strains shown in Tables 9 and 10 below were cultivated in advance on a slant culture of Sabouraud's agar medium (manufactured by Nissui Seiyaku Co., Ltd.; 1.0% peptone, 4.0% glucose, 1.5% agar, pH=5.9) at 27° C. for 2 weeks to allow them to grow conidia sufficiently. Then, sterilized physiological saline containing 0.05 weight/volume % of Tween 80 was added to the culture and while rubbing the surface of the culture with a platinum loop, the conidia were separated and caused to float. Using a hemocytometer, the filtrate was adjusted with sterilized physiological saline such that the concentration of conidia was 10^6 cells/ml, which was used as a test microbe liquid.
(§3) On the other hand, PR compounds and AD compounds (test drugs) of the present invention obtained in the examples described above were taken each in an amount of 10 mg, and 1 ml of dimethyl sulfoxide was added thereto to form a stock solution, of which 500 μl was taken and 500 μl of dimethyl sulfoxide was added thereto to prepare a 2-fold dilution. The same operation was repeated to prepare 13-stages ranging from 10 to 0.0025 mg/ml (final concentration of test system 100 to 0.025 μg/ml) of diluted drug solutions. Solutions with various diluted concentrations of test drug were each dispensed in sterilized petri dish with an amount of 100 μl. Then, 10 ml of sterile-dissolved Sabouraud's agar medium (1.0% peptone, 4.0% glucose, 1.5% agar, pH=5.9) was added, well mixed and solidified. Then, 5 μl of the test microbe solution previously adjusted were added using a microplanter, respectively.
(§4) The results are shown in Table 9 for PR compounds and in Table 10 for AD compounds, respectively. In the column of Compound No. in Tables 9 and 10, "PR-" or "AD-" were omitted.

Assay [2] concerns M. gypseum IF08231. The settings on record: Nannizzia gypsea, 168 h, Sabouraud's agar pH=5.9, 27° C., 1 week. The protocol: as §1, §2, §3, §4
Assay [3] has as its system T. mentagrophytes IF05811. The settings on record: Trichophyton mentagrophytes, 168 h, Sabouraud's agar pH=5.9, 27° C., 1 week. On the procedure: as §1, §2, §3, §4
The subject of assay [4] is T. mentagrophytes IF07552. The settings on record: Trichophyton mentagrophytes, 168 h, Sabouraud's agar pH=5.9, 27° C., 1 week. The protocol:
as §1, §2, §3, §4

In assay [5] the test system is T. mentagrophytes TIMM1177. Particulars: Trichophyton mentagrophytes, 168 h, Sabouraud's agar pH=5.9, 27° C., 1 week. On the procedure:
as §1, §2, §3, §4

In assay [6] the test system is T. mentagrophytes TIMM1189. The settings on record: Trichophyton mentagrophytes, 168 h, Sabouraud's agar pH=5.9, 27° C., 1 week. On the procedure:
as §1, §2, §3, §4

Assay [7] deals with T. rubrum IF05808. The settings on record: Trichophyton rubrum, 168 h, Sabouraud's agar pH=5.9, 27° C., 1 week. On the procedure:
as §1, §2, §3, §4

Assay [8] has as its system T. rubrum IF09185. The settings on record: Trichophyton rubrum, 168 h, Sabouraud's agar pH=5.9, 27° C., 1 week. On the procedure: as §1, §2, §3, §4
The test system of assay [9] is T. violaceum TIMM1264. Particulars: Trichophyton violaceum, 168 h, Sabouraud's agar pH=5.9, 27° C., 1 week. The protocol: as §1, §2, §3, §4

In brackets after ≈: the same amount, converted by molar mass.

With `C=C(CN(C)Cc1ccc(C(C)(C)C)cc1)c1ccccc1C` [Compound AD-028, N-(4-tert-butylbenzyl)-N-methyl-[2-(2-methylphenyl)-2-propenyl]amine], the MIC in assay [1] turned out to be 3.12 µg/mL (≈ 10.1 µM); in assay [2], 6.25 µg/mL (≈ 20.3 µM); in [3], 6.25 µg/mL (≈ 20.3 µM); in assay [4], 3.12 µg/mL (≈ 10.1 µM); in assay [5] it was 6.25 µg/mL (≈ 20.3 µM); in assay [6] it was 6.25 µg/mL (≈ 20.3 µM). Moreover, the MIC in [7] was found to be 3.12 µg/mL (≈ 10.1 µM); in assay [8], 3.12 µg/mL (≈ 10.1 µM); in assay [9], 6.25 µg/mL (≈ 20.3 µM).

Take `C=C(CN(C)Cc1ccc(C(C)(C)C)cc1)c1ccccc1[N+](=O)[O-]` [Compound AD-033, N-(4-tert-butylbenzyl)-N-methyl-[2-(2-nitrophenyl)-2-propenyl]amine]: the minimum inhibitory concentration (MIC) is 6.25 µg/mL (≈ 18.5 µM) in [1]; 12.5 µg/mL (≈ 36.9 µM) in [2]; 6.25 µg/mL (≈ 18.5 µM) in assay [3]; 6.25 µg/mL (≈ 18.5 µM) in [4]; 12.5 µg/mL (≈ 36.9 µM) in [5]; 12.5 µg/mL (≈ 36.9 µM) in [6]. The figures for the minimum inhibitory concentration (MIC) in assay [7], in assay [8] and in assay [9] were 3.12 µg/mL (≈ 9.22 µM), 3.12 µg/mL (≈ 9.22 µM) and 12.5 µg/mL (≈ 36.9 µM), respectively.

`C=C(CN(C)C/C=C/C#CC(C)(C)C)c1ccccc1` [Compound PR-1258, Trans-N-(6,6-dimethyl-2-hepten-4-ynyl)-N-methyl-2-phenyl-2-propenylamine]: the MIC was determined as 0.39 µg/mL (≈ 1.46 µM) in assay [1]; 1.56 µg/mL (≈ 5.83 µM) in assay [2]; 1.56 µg/mL (≈ 5.83 µM) in [3]; 0.78 µg/mL (≈ 2.92 µM) in assay [4]; 0.78 µg/mL (≈ 2.92 µM) in assay [5]; 0.78 µg/mL (≈ 2.92 µM) in assay [6]. Also, the MIC in assay [7] was determined as 0.39 µg/mL (≈ 1.46 µM); in assay [8] it was 0.78 µg/mL (≈ 2.92 µM); in assay [9], 1.56 µg/mL (≈ 5.83 µM).

With `CN(CC(=O)c1ccccc1O)Cc1ccc(C(C)(C)C)cc1` [Compound AD-057, 2-[N-(4-tert-butylbenzyl)-N-methylamino]-2'-hydroxyacetophenone], the MIC in assay [1] was 6.25 µg/mL (≈ 20.1 µM); in [2], 12.5 µg/mL (≈ 40.1 µM); in assay [3], 12.5 µg/mL (≈ 40.1 µM); in [4], 12.5 µg/mL (≈ 40.1 µM); in assay [5], 12.5 µg/mL (≈ 40.1 µM); in assay [6], 12.5 µg/mL (≈ 40.1 µM). Besides, the MIC in [7] turned out to be 3.12 µg/mL (≈ 10 µM); in [8] it was 6.25 µg/mL (≈ 20.1 µM); in assay [9] it was 6.25 µg/mL (≈ 20.1 µM).

As for `C=C(CN(C)Cc1ccc(C(C)(C)C)cc1)c1ccc(C)c(C)c1` [Compound AD-043, N-(4-tert-butylbenzyl)-N-methyl-[2-(3,4-dimethylphenyl)-2-propenyl]amine], the MIC worked out at 0.78 µg/mL (≈ 2.43 µM) in assay [1]; 1.56 µg/mL (≈ 4.85 µM) in [2]; 1.56 µg/mL (≈ 4.85 µM) in assay [3]; 1.56 µg/mL (≈ 4.85 µM) in assay [4]; 1.56 µg/mL (≈ 4.85 µM) in assay [5]; 1.56 µg/mL (≈ 4.85 µM) in [6]. In addition, the figures for the MIC in assay [7], in assay [8] and in assay [9] were 0.2 µg/mL (≈ 0.622 µM), 0.78 µg/mL (≈ 2.43 µM) and 1.56 µg/mL (≈ 4.85 µM), respectively.
